According to US20110082130A1 (LIGAND PHARMACEUTICALS, INC., priority 2006, published 2011):

Target: T1, chimeric human H3 receptor (Homo sapiens, UniProt Q9Y5N1)
T1 construct: made in house; host or cells: Sf9 insect cells (baculovirus); P2 membrane preparation
Assay: Chimeric human H3 receptor screening GTP binding assay (inhibition of histamine-stimulated GTP-gamma35S binding, Example 8)
Assay type: biochemical
Conditions: 4 μM of the compound, 1 μM histamine, "†" in Ki of Table II, read-out: percent inhibition of the signal obtained with 1 μM histamine
Protocol: This Example illustrates a representative screening assay for evaluating inhibition of histamine-stimulated GTP-gamma^35S binding. Such GTP binding activity can be used to identify H3 antagonists and inverse agonists. A compound analyzed in this assay is referred to herein as a “test compound,” and the initial identification of antagonists and inverse agonists is performed using a test compound concentration of 4 μM.
Four independent baculoviral stocks (one directing the expression of the chimeric human H3 receptor and three directing the expression of each of the three subunits of a heterotrimeric G-protein) are used to infect a culture of Sf9 cells as described above. P2 membranes are prepared as described above, and are resuspended by Dounce homogenization (tight pestle) in GTP binding assay buffer (50 mM Tris pH 7.4, 120 mM NaCl, 5 mM MgCl2, 2 mM EGTA, 1 mg/ml BSA, 0.2 mg/ml bacitracin, 0.02 mg/ml aprotinin, 0.01 mg/ml saponin, 10 μM GDP) and added to assay tubes at a concentration of 35 μg protein/reaction tube. Non-radiolabeled test compounds are added to separate reactions at a concentration of 4 μM along with 1 μM histamine (agonist). Reactions are initiated by the addition of […] GTP-gamma^35S with a final assay volume of 0.20 ml.
After a 60-min incubation at room temperature, reactions are terminated by vacuum filtration over GF/C filters (pre-soaked in 50 mM Tris pH 7.4, 120 mM NaCl plus 0.1% BSA) followed by washing with ice-cold buffer (50 mM Tris pH 7.4, 120 mM NaCl). The amount of receptor-bound (and thereby membrane-bound) GTP-gamma^35S is determined by measuring the bound radioactivity, preferably by liquid scintillation spectrometry of the washed filters. Non-specific binding is determined using 10 uM GTP-gammaS and typically represents less than 5 percent of total binding. After subtraction of non-specific binding, data is expressed as percent inhibition of 1 μM histamine signal.
Neutral antagonists are those test compounds that reduce the histamine-stimulated GTP binding activity towards, but not below, baseline levels. In contrast, in the absence of added histamine, inverse agonists reduce the GTP binding activity of the receptor-containing membranes below baseline. Any test compound that elevates GTP binding activity above baseline in the absence of added histamine in this assay is defined as having agonist activity.

T1 sequence (Q9Y5N1 with tags, fused parts or gaps): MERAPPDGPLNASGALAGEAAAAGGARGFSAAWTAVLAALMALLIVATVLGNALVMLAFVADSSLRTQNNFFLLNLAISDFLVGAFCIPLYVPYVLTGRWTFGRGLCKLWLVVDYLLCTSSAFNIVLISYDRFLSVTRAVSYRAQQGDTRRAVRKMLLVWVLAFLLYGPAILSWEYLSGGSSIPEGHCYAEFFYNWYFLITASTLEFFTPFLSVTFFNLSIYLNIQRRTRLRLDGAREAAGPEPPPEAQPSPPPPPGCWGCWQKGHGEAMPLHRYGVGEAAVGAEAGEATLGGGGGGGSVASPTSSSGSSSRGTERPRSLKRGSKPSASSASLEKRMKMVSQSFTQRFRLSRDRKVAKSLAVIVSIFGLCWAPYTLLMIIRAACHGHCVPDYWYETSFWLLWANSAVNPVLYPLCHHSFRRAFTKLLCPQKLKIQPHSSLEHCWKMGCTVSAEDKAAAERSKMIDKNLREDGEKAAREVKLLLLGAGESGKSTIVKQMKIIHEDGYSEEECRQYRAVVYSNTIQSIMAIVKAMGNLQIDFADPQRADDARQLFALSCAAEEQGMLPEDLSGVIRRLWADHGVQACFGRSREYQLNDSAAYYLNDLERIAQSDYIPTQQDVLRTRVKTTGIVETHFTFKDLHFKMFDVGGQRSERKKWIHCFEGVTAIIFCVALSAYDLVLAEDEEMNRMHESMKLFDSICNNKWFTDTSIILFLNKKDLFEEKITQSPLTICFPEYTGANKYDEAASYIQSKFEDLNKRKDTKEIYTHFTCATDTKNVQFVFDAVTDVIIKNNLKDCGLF

Inhibition at 4 µM, ≥ 90%:
Cc1cccc(-c2ccc3c(c2)CCN(CC(=O)N2CCN(C4CCC4)CC2)C3)c1 [Compound 432, 2-[2-(4-cyclobutylpiperazin-1-yl)-2-oxoethyl]-6-(3-methylphenyl)-1,2,3,4-tetrahydroisoquinoline]
CCCCc1ccc(-c2ccc3c(c2)CCN(CC(=O)N2CCN(C4CCC4)CC2)C3)cc1 [Compound 451, 6-(4-butylphenyl)-2-[2-(4-cyclobutylpiperazin-1-yl)-2-oxoethyl]-1,2,3,4-tetrahydroisoquinoline]
CCc1ccc(-c2ccc3c(c2)CCN(CC(=O)N2CCN(C4CCCC4)CC2)C3)cc1 [Compound 460, 2-[2-(4-cyclopentylpiperazin-1-yl)-2-oxoethyl]-6-(4-ethylphenyl)-1,2,3,4-tetrahydroisoquinoline]
O=C(CN1CCc2cc(-c3ccc4ccccc4c3)ccc2C1)N1CCN(C2CCCC2)CC1 [Compound 417, 2-[2-(4-cyclopentylpiperazin-1-yl)-2-oxoethyl]-6-(2-naphthyl)-1,2,3,4-tetrahydroisoquinoline]
CC(C)N1CCN(C(=O)CN2CCc3cc(-c4ccc(C(C)(C)C)cc4)ccc3C2)CC1 [Compound 474, 6-(4-tert-butylphenyl)-2-[2-(4-isopropylpiperazin-1-yl)-2-oxoethyl]-1,2,3,4-tetrahydroisoquinoline]
O=C(CN1CCc2cc(-c3ccc(Cl)cc3)ccc2C1)N1CCN(C2CCCCC2)CC1 [Compound 406, 6-(4-chlorophenyl)-2-[2-(4-cyclohexylpiperazin-1-yl)-2-oxoethyl]-1,2,3,4-tetrahydroisoquinoline]
Cc1ccc(-c2ccc3c(c2)CCN(CC(=O)N2CCN(C4CCCCC4)CC2)C3)cc1F [Compound 428, 2-[2-(4-cyclohexylpiperazin-1-yl)-2-oxoethyl]-6-(3-fluoro-4-methylphenyl)-1,2,3,4-tetrahydroisoquinoline]
Cc1ccc(-c2ccc3c(c2)CCN(CC(=O)N2CCN(C4CCCC4)CC2)C3)cc1C [Compound 448, 2-[2-(4-cyclopentylpiperazin-1-yl)-2-oxoethyl]-6-(3,4-dimethylphenyl)-1,2,3,4-tetrahydroisoquinoline]
Cc1cc(C)cc(-c2ccc3c(c2)CCN(CC(=O)N2CCN(C4CCC4)CC2)C3)c1 [Compound 455, 2-[2-(4-cyclobutylpiperazin-1-yl)-2-oxoethyl]-6-(3,5-dimethylphenyl)-1,2,3,4-tetrahydroisoquinoline]
CCc1cccc(-c2ccc3c(c2)CCN(CC(=O)N2CCN(C4CCC4)CC2)C3)c1 [Compound 467, 2-[2-(4-cyclobutylpiperazin-1-yl)-2-oxoethyl]-6-(3-ethylphenyl)-1,2,3,4-tetrahydroisoquinoline]
O=C(CN1CCc2cc(-c3ccc4ccccc4c3)ccc2C1)N1CCN(C2CCCCC2)CC1 [Compound 418, 2-[2-(4-cyclohexylpiperazin-1-yl)-2-oxoethyl]-6-(2-naphthyl)-1,2,3,4-tetrahydroisoquinoline]
O=C(CN1CCc2cc(-c3cccc(Cl)c3)ccc2C1)N1CCN(C2CCCC2)CC1 [Compound 402, 6-(3-chlorophenyl)-2-[2-(4-cyclopentylpiperazin-1-yl)-2-oxoethyl]-1,2,3,4-tetrahydroisoquinoline]
Cc1ccc(-c2ccc3c(c2)CCN(CC(=O)N2CCN(C4CCCCC4)CC2)C3)c(F)c1 [Compound 422, 2-[2-(4-cyclohexylpiperazin-1-yl)-2-oxoethyl]-6-(2-fluoro-4-methylphenyl)-1,2,3,4-tetrahydroisoquinoline]
Cc1ccc(-c2ccc3c(c2)CCN(CC(=O)N2CCN(C4CCCCC4)CC2)C3)cc1C [Compound 449, 2-[2-(4-cyclohexylpiperazin-1-yl)-2-oxoethyl]-6-(3,4-dimethylphenyl)-1,2,3,4-tetrahydroisoquinoline]
COc1ccc(C(C)C)cc1-c1nc2c(s1)CN(CC(=O)N1CCN(C3CCC3)CC1)CC2 [Compound 337, 5-[2-(4-cyclobutylpiperazin-1-yl)-2-oxoethyl]-2-(5-isopropyl-2-methoxyphenyl)-4,5,6,7-tetrahydro[1,3]thiazolo [5,4-c]pyridine]
O=C(CN1CCc2cc(-c3cccc(F)c3)ccc2C1)N1CCN(C2CCC2)CC1 [Compound 410, 2-[2-(4-cyclobutylpiperazin-1-yl)-2-oxoethyl]-6-(3-fluorophenyl)-1,2,3,4-tetrahydroisoquinoline]

Same assay, conditions: Table II "Ki", symbol †, 4 μM of the compound, 1 μM histamine, read-out: percent inhibition of the signal obtained with 1 μM histamine

Inhibition at 4 µM, ≥ 90%:
CCOc1ccc(-c2ccc3c(c2)CCN(CC(=O)N2CCN(C(C)C)CC2)C3)cc1 [Compound 531, 6-(4-ethoxyphenyl)-2-[2-(4-isopropylpiperazin-1-yl)-2-oxoethyl]-1,2,3,4-tetrahydroisoquinoline]
O=C(CN1CCc2cc(-c3cccc(OC(F)(F)F)c3)ccc2C1)N1CCN(C2CCCC2)CC1 [Compound 491, 2-[2-(4-cyclopentylpiperazin-1-yl)-2-oxoethyl]-6-[3-(trifluoromethoxy)phenyl]-1,2,3,4-tetrahydroisoquinoline]
O=C(CN1CCc2cc(-c3cc(F)ccc3F)ccc2C1)N1CCN(C2CCCCC2)CC1 [Compound 584, 2-[2-(4-cyclohexylpiperazin-1-yl)-2-oxoethyl]-6-(2,5-difluorophenyl)-1,2,3,4-tetrahydroisoquinoline]
O=C(CN1CCc2cc(-c3ccc(Oc4ccccc4)cc3)ccc2C1)N1CCN(C2CCCC2)CC1 [Compound 487, 2-[2-(4-cyclopentylpiperazin-1-yl)-2-oxoethyl]-6-(4-phenoxyphenyl)-1,2,3,4-tetrahydroisoquinoline]
O=C(CN1CCc2cc(-c3cc(Cl)cc(Cl)c3)ccc2C1)N1CCN(C2CCC2)CC1 [Compound 592, 2-[2-(4-cyclobutylpiperazin-1-yl)-2-oxoethyl]-6-(3,5-dichlorophenyl)-1,2,3,4-tetrahydroisoquinoline]
CCOc1ccccc1-c1ccc2c(c1)CCN(CC(=O)N1CCN(C3CCC3)CC1)C2 [Compound 566, 2-[2-(4-cyclobutylpiperazin-1-yl)-2-oxoethyl]-6-(2-ethoxyphenyl)-1,2,3,4-tetrahydroisoquinoline]
COc1ccc2cc(-c3ccc4c(c3)CCN(CC(=O)N3CCN(C(C)C)CC3)C4)ccc2c1 [Compound 512, 2-[2-(4-isopropylpiperazin-1-yl)-2-oxoethyl]-6-(6-methoxy-2-naphthyl)-1,2,3,4-tetrahydroisoquinoline]
O=C(CN1CCc2cc(-c3ccc(F)c(Cl)c3)ccc2C1)N1CCN(C2CCCCC2)CC1 [Compound 581, 6-(3-chloro-4-fluorophenyl)-2-[2-(4-cyclohexylpiperazin-1-yl)-2-oxoethyl]-1,2,3,4-tetrahydroisoquinoline]
O=C(CN1CCc2cc(-c3cncnc3)ccc2C1)N1CCN(C2C[C@H]3CC[C@@H]2C3)CC1 (stereo partly drawn) [Compound 623, 2-(2-{4-[(1R,4S)-bicyclo[2.2.1]hept-2-yl]piperazin-1-yl}-2-oxoethyl)-6-pyrimidin-5-yl-1,2,3,4-tetrahydroisoquinoline]
O=C(CN1CCc2cc(-c3ccc(Cl)c(Cl)c3)ccc2C1)N1CCN(C2CCC2)CC1 [Compound 594, 2-[2-(4-cyclobutylpiperazin-1-yl)-2-oxoethyl]-6-(3,4-dichlorophenyl)-1,2,3,4-tetrahydroisoquinoline]
O=C(CN1CCc2cc(-c3cccc(F)c3F)ccc2C1)N1CCN(C2CCC2)CC1 [Compound 599, 2-[2-(4-cyclobutylpiperazin-1-yl)-2-oxoethyl]-6-(2,3-difluorophenyl)-1,2,3,4-tetrahydroisoquinoline]
O=C(CN1CCc2cc(-c3cccc(F)c3F)ccc2C1)N1CCN(C2CCCCC2)CC1 [Compound 601, 2-[2-(4-cyclohexylpiperazin-1-yl)-2-oxoethyl]-6-(2,3-difluorophenyl)-1,2,3,4-tetrahydroisoquinoline]
O=C(CN1CCc2cc(-c3ccc(F)cc3F)ccc2C1)N1CCN(C2CCCC2)CC1 [Compound 587, 2-[2-(4-cyclopentylpiperazin-1-yl)-2-oxoethyl]-6-(2,4-difluorophenyl)-1,2,3,4-tetrahydroisoquinoline]
